How the values were obtained:
[1] = system: thrombomodulin activity (EA.hy926 endothelial cells); experiment: Protein C activation assay (thrombomodulin activity); assay type: cell-based, human; parameters: concentration dependence of cell surface thrombomodulin activity: dose or concentration left out as unconfirmed; settings: for Activity (thrombomodulin, protein C activation): same treatments, mean ± SEM, method gives OD slope; for effect of nitric oxide donors on thrombomodulin activity: 10 mM; for influence of enzyme inhibitors on thrombomodulin activity: data not shown
Experimental: (§1) TM activity was assessed by measuring protein C activation in early confluent cells grown on 96-well plates. Cells were washed twice with PBS and incubated with […] protein C and 1 nM thrombin (60 min at 37° C., […] total volume) to generate activated protein C. Excess thrombin was quenched with hirudin ([…], 0.2 ATu/ml). The amount of activated protein C generated was measured by monitoring hydrolysis of chromogenic substrate S-2366 at 5-min intervals at 405 nm in a microplate reader (Bio-TEK Instruments, Winooski, Vt.). The results were expressed as mean OD slope values (DOD/Dt).
The functional activity of thrombomodulin was assessed by measuring the ability of the endothelial cells to activate protein C. All samples and reagents were diluted in APC assay diluent (20 mM Tri-HCl, pH7.4, 100 mM NaCl, 2.5 mM CaCl2, 0.5% BSA). Exponentially growing EA.hy 926 endothelial cells were seeded into 96 well plates in triplicate (2×10^4 per well). Cells were allowed to attach and grow overnight, and then washed twice with PBS and incubated for 60 min in 60 μl total volume at 37° C. with 0.5 μM protein C and 1 nM thrombin to generate activated protein C. Excess thrombin was blocked with a superstoichiometric amount of hirudin (20 μl, 0.16 U/μl, 570 nM). Generation of active protein C was determined by using a chromogenic substrate S-2366 and absorbance at 405 nm was measured by using a Vmax kinetic microplate reader.

[2] = system: endothelial cell thrombomodulin (EA.hy926 endothelial cells); experiment: Thrombomodulin expression and activity overall (mRNA, protein, surface antigen, activity); assay type: cell-based, human; parameters: blocking of atorvastatin-induced thrombomodulin upregulation: dose or concentration left out as unconfirmed; settings: for blocking of atorvastatin-induced thrombomodulin upregulation: 30 min pre-incubation
Experimental: (§2) Steady-state TM mRNA levels were measured using quantitative real-time RT-PCR (Dr. G. Shipley, Quantitative Genomics Core Laboratory, University of Texas Health Science Center, Houston, Tex.). Human thrombomodulin and b-actin fluorogenic oligonucleotide probes and primers were designed from Genbank sequences, using Primer Express software (Applied Biosystems, Foster City, Calif.) and synthesized by Biosource International (Camarillo, Calif.). Total RNA was extracted using TRIZOL Reagent (Invitrogen, Carlsbad, Calif.) and the RNA samples were treated with RNAse-free DNAse I (Promega, Madison, Wis.). cDNA was synthesized from total RNA in 10 μl total volume, consisting of 6 μl RT master mix (Invitrogen, Carlsbad, Calif.) and a 4-μl RNA sample (30 ng/μl), using a thermocycler (MJR, Waltham, Mass.) for 30 minutes at 50° C. followed by 72° C. for 10 min. Samples were measured in triplicate. An assay-specific sDNA standard spanning a 5-log range and appropriate controls were included. Forty ml of a PCR master mix was pipetted directly onto each well of the cDNA plate utilizing a Biomek 2000 robotic workstation (Beckman, Fullerton, Calif.), and amplified (95° C. for 1 min; 40 cycles of 95° C. for 12 sec, and 60° C. for 1 min) using the 7700 Sequence Detector (Applied Biosystems). The data were normalized to b-actin and presented as molecules of TM transcript/molecules of b-actin transcript×100 (% b-actin).
(§3) Cells were harvested with trypsin/EDTA and lysed in lysis buffer (10 mM Tris, pH7.4, 150 mM NaCl, 1 mM EDTA, IGPAL CA630, 1 mM PMSF). Protein concentration was measured with the BCA assay (Pierce, Rockford, Ill.). Proteins (20 μg/per lane) were resolved by NuPAGE 4-10% Bis-tris gel electrophoresis (Invitrogen, Carlsbad, Calif.) and electrotransferred onto nitrocellulose membranes. Membranes were probed with primary mouse anti-human thrombomodulin antibody (American Diagnostica), followed by application of a secondary horseradish peroxidase-conjugated (HRP) anti-mouse IgG antibody (American Diagnostica). A mouse anti-human b-actin antibody (either from Sigma or Santa Cruz Biotechnology) was used for protein loading control. HRP signals were detected with an enhanced chemiluminescence (ECL) detection system (Amersham Pharmacia Biotech). Band densities were determined from X-Ray film using SigmaGel software (Jandel Scientific, San Rafael, Calif.).
(§4) Cells were examined for surface antigen expression by flow cytometry, using specific phycoerythrin-conjugated mouse antibodies against human TM (CD-141), a general endothelial cell marker (PECAM [CD-31]), and markers of stimulated endothelial cells (tissue factor [CD-142] and P-selectin [CD-62]) (BD Biosciences, San Diego, Calif.). Cell viability was assessed using 7-amino-actinomycin D (7-AAD). Phycoerythrin-conjugated mouse IgG was used as negative control. A total of 1×10^5 cells were used for each analysis. Cells were harvested, stained with appropriate phycoerythin-conjugated antibodies, fixed in 1% paraformaldehyde, and analysis was performed using a FACSCalibur Flow Cytometer (BD Immunocytometry System, San Jose, Calif.), QuantiBRITE-PE beads (BD Biosciences, San Diego, Calif.), and CELLQuest software. Antigen levels were expressed as antibody binding sites (ABS).
as §1
Statins, by inhibiting HMG-CoA reductase, reduce the formation of mevalonate (FIG. 7). […]

[3] = system: thrombomodulin protein (EA.hy926 endothelial cells); experiment: Western blotting of thrombomodulin protein in cell lysates; assay type: cell-based, human; settings: for Protein (thrombomodulin): same treatments, untreated control = 100, mean ± SEM
Experimental: as §3
Total thrombomodulin protein in cell lysates was measured by western blotting. EA.hy926 cells were grown to early (90%+) confluence. The cells were washed with 1×PBS twice and lysed by adding 1 ml lysis buffer (10 mM Tris, pH 7.4; 150 mM NaCl; 1 mM EDTA; 1% NP-40 or IGPAL CA630; 1 mM PMSF), and the lysate was collected into eppendorf tubes. Protein concentrations were measured with the BCA protein assay kit (Pierce). Protein aliquots of each sample were mixed with 4× loading buffer, placed in a boiling water bath for 5 min, and subsequently separated by NuPAGE 4-10% Bis-tris gel electrophoresis (Invitrogen Life Technologies). The proteins were transferred to a nitrocellulose membrane, probed with primary monoclonal mouse anti-human thrombomodulin antibody at 1:1000 and secondary anti-mouse IgG-HRP antibody at 1:2000 (American Diagnostica, Inc.) using standard procedures. The HRP signal was detected using ECL detection reagents (Amersham Life Sciences) and visualized on X-ray film.

[4] = system: cell surface thrombomodulin (EA.hy926 endothelial cells); experiment: Flow cytometry, cell surface thrombomodulin antigen (CD-141); assay type: cell-based, human; settings: for Antigen (cell surface thrombomodulin): same treatments, mean ± SEM, method gives antibody binding sites
Experimental: as §4

[5] = system: thrombomodulin mRNA (EA.hy926 endothelial cells); experiment: Fluorogenic probe RT-PCR, steady-state thrombomodulin mRNA; assay type: cell-based, human; parameters: concentration dependence of thrombomodulin mRNA: dose or concentration left out as unconfirmed; settings: for mRNA (thrombomodulin): FPP 10 μM, squalene 100 μM, GGPP 10 μM, atorvastatin 10 μM, intermediates 30 min before 24-hour atorvastatin, mean ± SEM, method gives % b-actin; for increase in thrombomodulin transcript: 10 mM atorvastatin
Experimental: as §2

[6] = system: thrombomodulin activity (human intestinal microvascular cells); experiment: Protein C activation assay (thrombomodulin activity); assay type: cell-based
Experimental: as §1

[7] = system: tissue factor (EA.hy926 endothelial cells); experiment: Tissue factor (CD-142) expression after TNF-a exposure; assay type: cell-based, human; settings: atorvastatin pre-treatment, data not shown
Experimental: as §4
TNF-a potently downregulates endothelial thrombomodulin, an effect that is pathophysiologically significant in sepsis and related disorders. Therefore, the effect of atorvastatin on TNF-a-induced downregulation of endothelial cell thrombomodulin was examined. Exposure of EA.hy926 cells to TNF-a (1-20 ng/ml for 24 hours) caused a dose-dependent increase in apoptosis (4-fold at 10 ng/ml) and tissue factor (2.5-fold) and decreased thrombomodulin by 75% (data not shown). […]

[8] = system: EA.hy926 endothelial cells; experiment: Apoptosis after TNF-a exposure; assay type: cell-based, human; settings: atorvastatin pre-treatment, data not shown
Experimental: TNF-a potently downregulates endothelial thrombomodulin, an effect that is pathophysiologically significant in sepsis and related disorders. Therefore, the effect of atorvastatin on TNF-a-induced downregulation of endothelial cell thrombomodulin was examined. Exposure of EA.hy926 cells to TNF-a (1-20 ng/ml for 24 hours) caused a dose-dependent increase in apoptosis (4-fold at 10 ng/ml) and tissue factor (2.5-fold) and decreased thrombomodulin by 75% (data not shown). EA.hy926 cells were pre-treated with atorvastatin (10 μM for 30 min) before exposure to TNF-a (1 or 10 ng/ml, 24 hours).

[9] = atorvastatin 10 μM for 30 min before TNF-a 1 or 10 ng/ml, 24 hours
[10] = statin before radiation, normal and irradiated cells, 24 hours after irradiation
[11] = 24 hours, atorvastatin 0.1-15 mM

CC(C)=CCC/C(C)=C/CC/C(C)=C/CC/C(C)=C/COP(=O)(O)OP(=O)(O)O [GGPP, geranylgeranyl-pyrophosphate]
Activity (thrombomodulin, protein C activation) [1]: 3.0 ± 0.7
blocking of atorvastatin-induced thrombomodulin upregulation [2]: completely blocked
Protein (thrombomodulin) [3]: 124 ± 11
Antigen (cell surface thrombomodulin) [4]: 66.6 ± 5
mRNA (thrombomodulin) [5]: 5.4 ± 0.5

CC(C)c1c(C(=O)Nc2ccccc2)c(-c2ccccc2)c(-c2ccc(F)cc2)n1CC[C@@H](O)C[C@@H](O)CC(=O)O [atorvastatin]
increase in TM activity (protein C activation) ([1]; 10 mM statin, 24 hours): 2- to 3 fold
thrombomodulin activity in irradiated endothelial cells ([1]; 25 Gy single dose radiation): essentially restored normal thrombomodulin activity
concentration dependence of cell surface thrombomodulin activity ([1]; 24 hours, different concentrations): prominent dose-dependent increase
effect on TNF-a-induced downregulation of thrombomodulin activity [1, 9]: completely counteracted
Activity (thrombomodulin, protein C activation) [1]: 4.1 ± 0.3
thrombomodulin activity compared to control endothelial cells [1, 10]: significantly higher
endothelial thrombomodulin activity (protein C activation assay) [6]: significantly affected
levels of thrombomodulin gene expression, protein and surface expression under TNF-a [2, 9]: significantly above those of untreated control cells
effect on TNF-a-induced tissue factor expression [7]: did not affect
increase in thrombomodulin protein ([3]; 10 mM atorvastatin, 24 hours): 2- to 3 fold
concentration dependence of cellular thrombomodulin protein [3, 11]: prominent dose-dependent increase
thrombomodulin protein, Western blot of cell lysates ([3]; irradiated and non-irradiated cells): prominent increase in thrombomodulin protein
Protein (thrombomodulin) [3]: 403 ± 70
effect on TNF-a-induced apoptosis [8]: did not affect
increase in cell surface TM antigen ([4]; 10 mM statin, 24 hours): 2- to 3 fold
concentration dependence of cell surface thrombomodulin antigen [4, 11]: prominent dose-dependent increase
Antigen (cell surface thrombomodulin) [4]: 146.2 ± 1.9
thrombomodulin antigen expression compared to control endothelial cells [4, 10]: significantly higher
increase in thrombomodulin transcript ([5]; 8 hours): 3 fold
increase in thrombomodulin transcript ([5]; 24 hours): > 10 fold
concentration dependence of thrombomodulin mRNA ([5]; 24 hours): prominent dose-dependent increase
mRNA (thrombomodulin) [5]: 71.7 ± 8.8

CC(C)=CCC/C(C)=C/CC/C(C)=C/CC/C=C(\C)CC/C=C(\C)CCC=C(C)C [Squalene, squalene]
Activity (thrombomodulin, protein C activation) [1]: 2.4 ± 0.6
blocking of atorvastatin-induced thrombomodulin upregulation [2]: ineffective in blocking
Protein (thrombomodulin) [3]: 147 ± 29
Antigen (cell surface thrombomodulin) [4]: 60.9 ± 1.9
mRNA (thrombomodulin) [5]: 5.9 ± 1.0

Cl.N=c1c[n+](N2CCOCC2)[n-]o1 [SIN-1, 3-Morpholinosydnonimine hydrochloride]
effect of nitric oxide donors on thrombomodulin activity [1]: mimicked the effect of atorvastatin on thrombomodulin activity

CC(C)=CCC/C(C)=C/CC/C(C)=C/COP(=O)(O)OP(=O)(O)O [FPP, farnesyl-pyrophosphate]
Activity (thrombomodulin, protein C activation) [1]: 3.6 ± 0.3
blocking of atorvastatin-induced thrombomodulin upregulation [2]: only partially blocked
Protein (thrombomodulin) [3]: 94 ± 9
Antigen (cell surface thrombomodulin) [4]: 74.3 ± 1.1
mRNA (thrombomodulin) [5]: 8.2 ± 1.9

CCCN(CCCN)N(O)N=O [PAPA-NONOate, 3-(2-Hydroxy-2-nitroso-1-propylhydrazino)-1-propanamine]
effect of nitric oxide donors on thrombomodulin activity [1]: mimicked the effect of atorvastatin on thrombomodulin activity

CC(O)(CCO)CC(=O)O (centres unmarked) [mevalonate, Mevalonate]
inhibition of atorvastatin-induced thrombomodulin upregulation ([2]; 100 mM or 500 mM mevalonate 30 min prior to 24-hour): dose-dependent inhibition
inhibition of atorvastatin-induced thrombomodulin upregulation ([2]; higher mevalonate concentration): virtually complete inhibition

COC(=O)[C@H](CC(C)C)NC(=O)c1ccc(NC[C@@H](N)CS)cc1-c1cccc2ccccc12 [GGTI-298]
influence of enzyme inhibitors on thrombomodulin activity [1]: increasing thrombomodulin activity

C=C(CC[C@]12O[C@H](C(=O)O)[C@@](O)(C(=O)O)[C@](C(=O)O)(O1)[C@H](OC(=O)/C=C/[C@@H](C)C[C@@H](C)CC)[C@H]2O)[C@@H](OC(C)=O)[C@H](C)Cc1ccccc1 [zaragozic acid, zaragozic acid A]
influence of enzyme inhibitors on thrombomodulin activity [1]: no effect

CC1(C)N([O])C(c2ccccc2)=[N+]([O-])C1(C)C [PTIO, 2-Phenyl-4,4,5,5-tetramethylimidazoline-1-oxyl 3-oxide]
effect of NO scavenger on atorvastatin-induced increase in thrombomodulin activity ([1]; pre-incubation with 100 mM): inhibited the atorvastatin-induced increase in thrombomodulin activity
